The subject of one assay is VE-Cadherin. The assay can be described thus: HUVEC cell surface expression of VE-Cadherin (CD144) by flow cytometry. It is filed as cell-based, Human. To be noted: 10 μM, FIG. 4. As for the experimental part:
A) Materials. Human Umbilical Vein Endothelial Cells (HUVEC) sent from LifeBank, were tested in Experiments A-K with several adhesion molecules. The adhesion molecules tested were CD51/CD61FITC (obtained from BD PharMingen, San Diego, Calif.; Catalog No. 555505), ICAM-1 PE also known as CD54 (obtained from BD PharMingen, San Diego, Calif.; Catalog No. 555511), ICAM-2 also known as CD102 (obtained from Research Diagnostics Inc., Concord, Mass.; Catalog No. RDI-CBL539FT), VCAM-1 (obtained from BD PharMingen, San Diego, Calif.; Catalog No. 555647), P-Selectin FITC (obtained from R&D Systems, Inc., Minneapolis, Minn.; Catalog No. BBA34), E-Selectin FITC (obtained from R&D Systems, Inc., Minneapolis, Minn.; Catalog No. BBA21), HLA Class I FITC (obtained from BD PharMingen, San Diego, Calif.; Catalog No. 555553), HLA Class II PE (obtained from BD PharMingen, San Diego, Calif.; Catalog No. 555558), CD44 FITC (obtained from BD PharMingen, San Diego, Calif.; Catalog No. 347943), CD144 (Cadherin VE) (obtained from CHEMICON International, Inc., Temecula, Calif.; Catalog No. MAB1989), IgG2a FITC (obtained from BD PharMingen, San Diego, Calif.; Cat #556652), Ms IgG2a (obtained from CHEMICON International, Inc., Temecula, Calif.; Cat. No. PP102), IgG1 FITC (obtained from BD PharMingen, San Diego, Calif.; Cat. No. 349041) and IgG1 PE (obtained from BD PharMingen, San Diego, Calif.; Cat. No. 349043).
Compound (1) ((+)-2-[1-(3-ethoxy-4-methoxyphenyl)-2-methylsulfonylethyl]-4-acetylaminoisoindoline-1,3-dione) and Compound (2) (4-(amino)-2-(2,6-dioxo(3-piperidyl))-isoindoline-1,3-dione) were obtained according to the preparation procedures disclosed herein. 16,16-Dimethyl-PGE2 (hereinafter PGE2) was obtained from BIOMOL International, L.P. (Plymouth Meeting, Pa.; Catalog No. PG-021). TNF-αwas obtained from Pierce Biotechnology (Rockford, Ill.; Catalog No. RTNFA 10).
B) Methods. […]
In general terms: A flow cytometer gives signals particle by particle.

The subject of a further assay is TNF-α. Nature of the assay: Ultraviolet B-induced TNF-alpha production by human keratinocytes (HEKn cells), TNF-α ELISA. In kind it is cell-based. As to the method:
Cutaneous lupus patients often experience disease exacerbation when exposed to ultraviolet (UV) light. This is thought to be due to UVB-induced TNF-α production by keratinocytes. […] In vitro study for cutaneous lupus was performed to investigate how the compounds of the invention affect TNF-α production in keratinocytes.
Human neonatal foreskin epidermal keratinocytes (HEKn cells) were obtained from Cascade Biologics and were grown in serum-free medium supplemented with growth factors. When cells reached 80% confluency, they were trypsinized and plated at 1×10^5 cells/well in 6 well dishes. Plates were incubated for 24 hours to allow cell adhesion. To optimize conditions for the release of TNF-α, cells were treated with various degrees of exposure to UVB radiation (1, 4 and 24 hours). Supernatants were then collected and tested in the TNF-α ELISA.
Supernatants were collected and tested in the TNF-α ELISA at 1 Hour (bars with no pattern), 4 Hours (lined bars), or 24 Hours (checkered bars) after exposure. Results are the average of two experiments. The results shown in FIG. 7 indicate that supernatants collected 24 hours after HEKn cells were exposed to UVB had the highest levels of TNF-α. After exposure to 10, 50, or 100 mJ/cm^2, cells remained attached to the wells and no cell damage was observed. The 300 mJ/cm^2 UVB exposure was too high for the HEKn cells and many cells were damaged and detached from the bottom of the wells.
Cells were treated for 4 hours with (+)-2-[1-(3-ethoxy-4-methoxyphenyl)-2-methylsulfonylethyl]-4-acetylaminoisoindoline-1,3-dione (compound named 10004), or cyclopropyl {2-[(1S)-1-(3-ethoxy-4-methoxyphenyl)-2-(methylsulfonyl)ethyl]-3-oxoisoindolin-4-yl}carboxamide (compound named 11050) at 0.1 μM, 1 μM, or 10 μM. Medium was aspirated the cells washed and then exposed to 50 mJ/cm^2 UVB radiation. Fresh medium was added and the cells were incubated for 24 hours. Supernatents were removed and tested in the TNF-α ELISA kit from Pierce Biotechnology. […] (FIG. 8). […] (FIG. 8).
In other experiments, cells were treated for 4 hours with 3-(4-amino-1-oxo-1,3-dihydro-isoindol-2-yl)-piperidine-2,6-dione (compound named 5013), (+)-2-[1-(3-ethoxy-4-methoxyphenyl)-2-methylsulfonylethyl]-4-acetylaminoisoindoline-1,3-dione (compound named 10004) or compound named 16057, at 0.1 μM or 1 μM. […] (FIG. 9). […] (FIG. 9).

For `CCOc1cc(C(CS(C)(=O)=O)N2C(=O)c3cccc(NC(C)=O)c3C2=O)ccc1OC` (single isomer, unassigned; (+)) [Compound (1), (+)-2-[1-(3-ethoxy-4-methoxyphenyl)-2-methylsulfonylethyl]-4-acetylaminoisoindoline-1,3-dione], the “TNF-α-stimulated cell surface expression of VE-Cadherin” value with VE-Cadherin is reported as “unaffected”. For the same compound, the “levels of TNF-α released after UVB exposure” value in the assay on TNF-α (HEKn cells treated 4 hours at 0.1 μM or 1 μM, UVB, FIG. 9) is “dose dependent decrease”; in the assay on TNF-α (HEKn cells treated 4 hours at 0.1 μM, 1 μM, or 10 μM, 50 mJ/cm^2 UVB, 24 hours, FIG. 8) it was “dose dependent decrease”. Moreover, the “TNF-α levels after UVB exposure with the 10 μM treatment” value in the assay with TNF-α (HEKn cells treated 4 hours at 10 μM, 50 mJ/cm^2 UVB, 24 hours, FIG. 8) is recorded as “TNF-α levels similar to cells not treated with radiation”.
